{"source": "patent US20090130229A1", "about": "“Antitumor uses of compound” (Cell Therapeutics, Inc., priority 2002, published 2009)", "key": {"[1]": {"system": "NIH3T3^KITΔ559 cells", "experiment": "Reversion of transformed morphologic phenotype of NIH3T3 transfectants expressing KIT (Δ559)", "format": "cell-based, mouse", "conditions": "20 μM, 24 h, phase-contrast microscope", "procedure": "FIG. 7. Effects of Cpd1 on cell lines expressing constitutively activated forms of Kit. […] Cells were treated with 20 μM Cpd1 and photographed 24 h later under a phase-contrast microscope (original magnification X 100). B): Inhibition of Kit (Δ559) autophosphorylation and expression in NIH3T3 transfectants. Cells were treated with Cpd 1 at the indicated concentrations, for 72 h. Cell lysates were immunoprecipitated with anti-Kit antibody and subjected to Western blotting with anti-p-Tyr or anti-Kit antibodies. C): Inhibition of expression and autocrine loop-activated autophosphorylation of c-Kit in the SCLC cell line N592. Cells were treated with Cpd 1 at the indicated concentrations, for 24 h. Whole cell lysates were subjected to Western blotting with anti-Kit antibody or with an antibody specifically recognizing the tyrosine phosphorylated/activated Kit (p-Kit).\nThe following human medullary thyroid carcinoma (MTC) cell lines were used in this study. The TT cell line derived from a MEN2A-associated MTC characterized by expression of the RET oncogene carrying the mutation C634W. The MZ-CRC-1 cell line derived from MEN2B-associated MTC characterized by expression of the RET oncogene carrying the mutation M918T. […]"}, "[2]": {"system": "NIH3T3^MEN2A(C634R) cells", "experiment": "Antiproliferative assay (Coulter Counter), NIH3T3 MEN2A(C634R) versus parental NIH3T3", "format": "cell-based, murine", "conditions": "72 h, dose-response curves", "procedure": "FIG. 1. Effects of Cpd 1 on NIH3T3^MEN2A(C634R) transfectants expressing exogenous RET/MEN2A(C634R). […] Cells were exposed to 6 μM Cpd1 for 24 h and then photographed under a phase-contrast microscope (original magnification ×100). B) Antiproliferative effect. NIH3T3^MEN2A(C634R) cells and the parental NIH3T3 cells were treated with increasing concentrations of the drug for 72 h and then counted with a Coulter Counter. […] C) Inhibition of Ret/MEN2A(C634R) autophosphorylation and expression. Cells were treated with solvent (−) or 10 μM Cpd1 (+), for the indicated times. Whole cell-lysates were prepared and subjected to SDS-PAGE and Western blotting with anti-pTyr antibody. After stripping, the filter was reblotted with anti-Ret antibody. Arrows indicate the partial and fully glycosilated forms of the Ret/MEN2A receptor.\nCells were trypsinized after 3 days (NIH3T3 and NIH3T3 M12A cells) or 7 days (MTC cells) of treatment with Cpd1 and counted by a Coulter Counter (Coulter Electronics, Luton U.K.). The concentrations able to inhibit cell proliferation by 50% (IC50) were calculated from the dose-response curves. Each experiment was performed in duplicate"}, "[3]": {"system": "PDGF-R", "experiment": "PDGF-R autophosphorylation and expression in whole cells (2N5A, Swiss 3T3)", "format": "cell-based, mouse", "procedure": "FIG. 5. Inhibition of PDGF-R autophosphorylation and expression in whole cells by Cpd 1. A): 2N5A cells (NIH3T3 transformed by the COL1A1/PDGFB rearrangement generating autocrine stimulation of PDGF-R) were treated with Cpd 1 at the indicated concentrations, for 72 h. Cell extracts were immunoprecipitated with anti-PDGF-R and subjected to Western blotting with anti-pTyr or anti-PDGF-R antibodies. B): Swiss 3T3 cells were serum starved for 24 h and then treated with Cpd1 at the indicated concentrations, for 18 h. After stimulation with 1 nM PDGF for 5 min, whole cell lysates were prepared and subjected to Western blotting with anti-pTyr or anti-PDGF-R. Protein loading by anti-actin blot is shown.\nThe following human medullary thyroid carcinoma (MTC) cell lines were used in this study. The TT cell line derived from a MEN2A-associated MTC characterized by expression of the RET oncogene carrying the mutation C634W. The MZ-CRC-1 cell line derived from MEN2B-associated MTC characterized by expression of the RET oncogene carrying the mutation M918T. TT cells were cultivated in Ham's F12 medium (BioWhittaker, Verviers, Belgium) supplemented with 15% fetal calf serum (FCS) (Life Technologies, Inc., Gaithersburg, Md.) whereas MZ-CRC-1 cells were grown in Dulbecco's modified Eagle's medium (DMEM) (BioWhittaker) supplemented with 10% FCS. The human papillary thyroid carcinoma cell line TPC-1 which was used as a model of Met overexpression, was routinely cultivated in DMEM with 10% FCS. N592 cells, derived from a human SCLC, were characterized by Kit activation through autocrine stimulation by the SCF ligand. N592 cells were cultured in RPMI 1640 supplemented with 10% FCS. The mouse SWISS3T3 and NIH3T3 fibroblasts were cultured in DMEM with 10% calf serum (Colorado Serum Company, Denver, Colo.). In addition, NIH3T3 cells transfected with different oncogenes were used. NIH3T3^MEN2A transfectants express the short isoform of the RET-MEN2A (C634R) oncogene; NIH3T3^KITΔ559 cells express KIT carrying the activating mutation Δ559 found in GISTs; NIH3T3^FGFR3(Y373C) express the FGF-R3 gene carrying the activating mutation Y373C found in a human multiple myeloma cell line. 2N5A cells are NIH3T3 cells-transformed by the COL1A1/PDGFB rearrangement generating autocrine stimulation of PDGF-R. All NIH3T3 transfectants were maintained in DMEM plus 5% calf serum in a 10% CO2 atmosphere.\nFor whole-cell extract preparation, cells were lysed in sodium dodecyl sulfate (SDS) sample buffer (62.5 mM Tris-HCl (pH 6.8), 2% SDS) with 1 mM PMSF, 10 μg/ml pepstatin, 12.5 μg/ml leupeptin, 100 KIU aprotinin, 1 mM sodium orthovanadate, 1 mM sodium molybdate. Protein concentration was determined in appropriately diluted aliquots by the bicinchionic acid (BCA) method (Pierce, Rockford, Ill.), then samples were adjusted to a final concentration of 10% glycerol, 5% β-mercaptoethanol, 0.001% bromophenol blue.\nFor immunoprecipitation experiments, cells were treated with Cpd1 or solvent for the indicated times. Cell monolayers were rinsed twice with cold phosphate-buffered saline plus 0.1 mM sodium orthovanadate and then left for 20 min on ice in lysis buffer (50 mM HEPES pH7.6, 150 mM NaCl, 10% glycerol, 1% Triton X-100, 1.5 mM MgCl2, 1 mM EGTA, 100 mM NaF, 10 mM sodium pyrophosphate, 10 μg/ml antipain, 20 μg/ml chymostatin, 10 μg/ml E64, 1 mg/ml pefabloc SC). […] Protein concentration was determined by the BCA reagent (Pierce). […]"}}}
{"smiles": "COc1cc2c(cc1OC)/C(=C\\c1ccc(O)cc1)C(=O)N2", "note": "[Cpd 1, (E)-1,3-dihydro-5,6-dimethoxy-3-[(4-hydroxyphenyl)methylene]-2H-indol-2-one]", "values": [{"measurement": "Transformed morphologic phenotype", "setting": "[1]", "value": "Reversion of the transformed morphologic phenotype"}, {"measurement": "Antiproliferative effect, sensitivity relative to parental NIH3T3 cells", "setting": "[2]", "value": "higher sensitivity"}, {"measurement": "PDGF-R tyrosine phosphorylation", "setting": "[3]; 2N5A cells (autocrine stimulation), 72 h", "value": "dose-dependent drug-induced inhibition"}, {"measurement": "PDGF-R expression", "setting": "[3]; 2N5A cells, 72 h", "value": "dose-dependent drug-induced inhibition"}, {"measurement": "PDGF-R tyrosine phosphorylation", "setting": "[3]; Swiss 3T3 cells serum starved, 18 h, 1 nM PDGF 5 min", "value": "dose-dependent drug-induced inhibition"}, {"measurement": "PDGF-R expression", "setting": "[3]; Swiss3T3 cells, 18 h", "value": "dose-dependent drug-induced inhibition"}, {"measurement": "Concentration causing full inhibition of PDGF-R phosphorylation", "setting": "[3]; whole cells (FIG. 5)", "value": "higher than 15 μM"}]}
